Active and inactive are the calls of the source. The rule behind the calls is not given here.
What was measured:
786-0 [1] = experiment: Cytotoxicity against human 786-0 cells after 48 hrs by SRB assay; assay type: functional; conditions: 786-0, 48 h
U-251 [2] = experiment: Cytotoxicity against human U251 cells assessed as growth inhibition at 10 uM after 24 hrs by SRB assay; assay type: functional; conditions: U-251, 24 h, read-out: GI
SNB-75 [3] = experiment: Cytotoxicity against human SNB75 cells assessed as growth inhibition at 10 uM after 24 hrs by SRB assay; assay type: functional; conditions: SNB-75, 24 h, read-out: GI
PC-3 = experiment: Cytotoxicity against human PC3 cells assessed as growth inhibition at 10 uM after 24 hrs by SRB assay; assay type: functional; conditions: PC-3, 24 h, read-out: GI
HCT-116 = experiment: Cytotoxicity against human HCT116 cells assessed as growth inhibition at 10 uM after 24 hrs by SRB assay; assay type: functional; conditions: HCT-116, 24 h, read-out: GI
TK-10 [4] = experiment: Cytotoxicity against human TK10 cells assessed as growth inhibition at 10 uM after 24 hrs by SRB assay; assay type: functional; conditions: TK-10, 24 h, read-out: GI
SR = experiment: Cytotoxicity against human SR cells assessed as growth inhibition at 10 uM after 24 hrs by SRB assay; assay type: functional; conditions: read-out: GI
NCI/ADR-RES = experiment: Cytotoxicity against human NCI/ADR-RES cells assessed as growth inhibition at 10 uM after 24 hrs by SRB assay; assay type: functional; conditions: read-out: GI
OVCAR-8 = experiment: Cytotoxicity against human OVCAR8 cells assessed as growth inhibition at 10 uM after 24 hrs by SRB assay; assay type: functional; conditions: OVCAR-8, 24 h, read-out: GI
HOP-92 [5] = experiment: Cytotoxicity against human HOP92 cells after 48 hrs by SRB assay; assay type: functional; conditions: HOP-92, 48 h
SK-OV-3 = experiment: Cytotoxicity against human SKOV3 cells assessed as growth inhibition at 10 uM after 24 hrs by SRB assay; assay type: functional; conditions: SK-OV-3, 24 h, read-out: GI
CAKI-1 = experiment: Cytotoxicity against human CAKI-1 cells assessed as growth inhibition at 10 uM after 24 hrs by SRB assay; assay type: functional; conditions: CAKI-1, 24 h, read-out: GI
MDA-MB-231 [6] = experiment: Cytotoxicity against human MDA-MB-231 cells after 48 hrs by SRB assay; assay type: functional; conditions: MDA-MB-231, 48 h
MDA-MB-435 = experiment: Cytotoxicity against human MDA-MB-435 cells assessed as growth inhibition at 10 uM after 24 hrs by SRB assay; assay type: functional; conditions: MDA-MB-435, 24 h, read-out: GI
NCI-H460 = experiment: Cytotoxicity against human NCI-H460 cells assessed as growth inhibition at 10 uM after 24 hrs by SRB assay; assay type: functional; conditions: NCI-H460, 24 h, read-out: GI
OVCAR-4 = experiment: Cytotoxicity against human OVCAR4 cells assessed as growth inhibition at 10 uM after 24 hrs by SRB assay; assay type: functional; conditions: OVCAR-4, 24 h, read-out: GI
SK-MEL-28 [7] = experiment: Cytotoxicity against human SK-MEL-28 cells after 48 hrs by SRB assay; assay type: functional; conditions: SK-MEL-28, 48 h
SNB-75 [8] = experiment: Cytotoxicity against human SNB75 cells after 48 hrs by SRB assay; assay type: functional; conditions: SNB-75, 48 h
CCRF-CEM = experiment: Cytotoxicity against human CCRF-CEM cells assessed as growth inhibition at 10 uM after 24 hrs by SRB assay; assay type: functional
HOP-92 [9] = experiment: Cytotoxicity against human HOP92 cells assessed as growth inhibition at 10 uM after 24 hrs by SRB assay; assay type: functional; conditions: HOP-92, 24 h, read-out: GI
HOP-62 [10] = experiment: Cytotoxicity against human HOP62 cells after 48 hrs by SRB assay; assay type: functional; conditions: HOP-62, 48 h
Ovis aries = species: Ovis aries; experiment: Inhibition of sheep tubulin polymerization at 100 uM by fluorescence assay
[11] = Cytotoxicity against human Hs578T cells assessed as growth inhibition at 10 uM after 24 hrs by SRB assay; assay type: functional; conditions: Hs-578T, read-out: GI
HOP-62 [12] = experiment: Cytotoxicity against human HOP62 cells assessed as growth inhibition at 10 uM after 24 hrs by SRB assay; assay type: functional; conditions: HOP-62, 24 h, read-out: GI
U-251 [13] = experiment: Cytotoxicity against human U251 cells after 48 hrs by SRB assay; assay type: functional; conditions: U-251, 48 h
Malme-3M = experiment: Cytotoxicity against human MALME-3M cells assessed as growth inhibition at 10 uM after 24 hrs by SRB assay; assay type: functional; conditions: read-out: GI
UACC-257 = experiment: Cytotoxicity against human UACC257 cells assessed as growth inhibition at 10 uM after 24 hrs by SRB assay; assay type: functional; conditions: UACC-257, 24 h, read-out: GI
NCI-H522 = experiment: Cytotoxicity against human NCI-H522 cells assessed as growth inhibition at 10 uM after 24 hrs by SRB assay; assay type: functional; conditions: NCI-H522, 24 h, read-out: GI
SK-MEL-5 = experiment: Cytotoxicity against human SK-MEL-5 cells assessed as growth inhibition at 10 uM after 24 hrs by SRB assay; assay type: functional; conditions: SK-MEL-5, 24 h, read-out: GI
OVCAR-3 = experiment: Cytotoxicity against human OVCAR3 cells assessed as growth inhibition at 10 uM after 24 hrs by SRB assay; assay type: functional; conditions: OVCAR-3, 24 h, read-out: GI
ACHN = experiment: Cytotoxicity against human ACHN cells assessed as growth inhibition at 10 uM after 24 hrs by SRB assay; assay type: functional; conditions: read-out: GI
SF-539 = experiment: Cytotoxicity against human SF539 cells assessed as growth inhibition at 10 uM after 24 hrs by SRB assay; assay type: functional; conditions: SF-539, 24 h, read-out: GI
A549 = experiment: Cytotoxicity against human A549 cells assessed as growth inhibition at 10 uM after 24 hrs by SRB assay; assay type: functional; conditions: A549, 24 h, read-out: GI
TK-10 [14] = experiment: Cytotoxicity against human TK10 cells after 48 hrs by SRB assay; assay type: functional; conditions: TK-10, 48 h
HL-60(TB) = experiment: Cytotoxicity against human HL-60(TB) cells assessed as growth inhibition at 10 uM after 24 hrs by SRB assay; assay type: functional; conditions: HL-60, 24 h, read-out: GI
RXF 393 [15] = experiment: Cytotoxicity against human RXF393 cells after 48 hrs by SRB assay; assay type: functional; conditions: RXF 393, 48 h
K562 = experiment: Cytotoxicity against human K562 cells assessed as growth inhibition at 10 uM after 24 hrs by SRB assay; assay type: functional; conditions: K562, 24 h, read-out: GI
MCF7 = experiment: Cytotoxicity against human MCF7 cells assessed as growth inhibition at 10 uM after 24 hrs by SRB assay; assay type: functional; conditions: MCF7, 24 h, read-out: GI
DU-145 = experiment: Cytotoxicity against human DU145 cells after 48 hrs by SRB assay; assay type: functional; conditions: DU-145, 48 h
RXF 393 [16] = experiment: Cytotoxicity against human RXF393 cells assessed as growth inhibition at 10 uM after 24 hrs by SRB assay; assay type: functional; conditions: RXF 393, 24 h, read-out: GI
SK-MEL-28 [17] = experiment: Cytotoxicity against human SK-MEL-28 cells assessed as growth inhibition at 10 uM after 24 hrs by SRB assay; assay type: functional; conditions: SK-MEL-28, 24 h, read-out: GI
T47D = experiment: Cytotoxicity against human T47D cells assessed as growth inhibition at 10 uM after 24 hrs by SRB assay; assay type: functional; conditions: read-out: GI
NCI-H226 = experiment: Cytotoxicity against human NCI-H226 cells assessed as growth inhibition at 10 uM after 24 hrs by SRB assay; assay type: functional; conditions: NCI-H226, 24 h, read-out: GI
786-0 [18] = experiment: Cytotoxicity against human 786-0 cells assessed as growth inhibition at 10 uM after 24 hrs by SRB assay; assay type: functional; conditions: 786-0, 24 h, read-out: GI
SF-295 = experiment: Cytotoxicity against human SF295 cells assessed as growth inhibition at 10 uM after 24 hrs by SRB assay; assay type: functional; conditions: SF-295, 24 h, read-out: GI
UACC-62 = experiment: Cytotoxicity against human UACC62 cells assessed as growth inhibition at 10 uM after 24 hrs by SRB assay; assay type: functional; conditions: UACC-62, 24 h, read-out: GI
MDA-MB-231 [19] = experiment: Cytotoxicity against human MDA-MB-231 cells assessed as growth inhibition at 10 uM after 24 hrs by SRB assay; assay type: functional; conditions: MDA-MB-231, 24 h, read-out: GI
RPMI-8226 = experiment: Cytotoxicity against human RPMI8226 cells assessed as growth inhibition at 10 uM after 24 hrs by SRB assay; assay type: functional; conditions: RPMI-8226, 24 h, read-out: GI

SMILES: COc1nc(OC)nc(-c2cc(C(=O)c3ccc(Br)cc3)n3ccccc23)n1
- GI50 (786-0 [1]): 2600 nM
- inhibition of growth at 10 µM (U-251 [2]): 61%
- inhibition of growth at 10 µM (SNB-75 [3]): -5%
- inhibition of growth at 10 µM (PC-3): 55%
- inhibition of growth at 10 µM (HCT-116): 65%
- inhibition of growth at 10 µM (TK-10 [4]): 78%
- inhibition of growth at 10 µM (SR): 36%
- inhibition of growth at 10 µM (NCI/ADR-RES): 50%
- inhibition of growth at 10 µM (OVCAR-8): 52%
- GI50 (HOP-92 [5]): 1080 nM
- inhibition of growth at 10 µM (SK-OV-3): -11%
- inhibition of growth at 10 µM (CAKI-1): 56%
- GI50 (MDA-MB-231 [6]): 920 nM
- inhibition of growth at 10 µM (MDA-MB-435): 45%
- inhibition of growth at 10 µM (NCI-H460): 70%
- inhibition of growth at 10 µM (OVCAR-4): 88%
- GI50 (SK-MEL-28 [7]): 83800 nM
- GI50 (SNB-75 [8]): 870 nM
- growth inhibition (GI) (CCRF-CEM): inactive
- inhibition of growth at 10 µM (HOP-92 [9]): 59%
- GI50 (HOP-62 [10]): 2180 nM
- inhibition (Ovis aries): inactive
- inhibition of growth at 10 µM [11]: 96%
- inhibition of growth at 10 µM (HOP-62 [12]): 96%
- GI50 (U-251 [13]): 1870 nM
- inhibition of growth at 10 µM (Malme-3M): 37%
- inhibition of growth at 10 µM (UACC-257): 62%
- inhibition of growth at 10 µM (NCI-H522): 40%
- inhibition of growth at 10 µM (SK-MEL-5): 27%
- inhibition of growth at 10 µM (OVCAR-3): 44%
- inhibition of growth at 10 µM (ACHN): 70%
- inhibition of growth at 10 µM (SF-539): 76%
- inhibition of growth at 10 µM (A549): 62%
- GI50 (TK-10 [14]): 3320 nM
- inhibition of growth at 10 µM (HL-60(TB)): 12%
- GI50 (RXF 393 [15]): 4740 nM
- inhibition of growth at 10 µM (K562): 22%
- inhibition of growth at 10 µM (MCF7): 18%
- GI50 (DU-145): 29100 nM
- inhibition of growth at 10 µM (RXF 393 [16]): 75%
- inhibition of growth at 10 µM (SK-MEL-28 [17]): 63%
- inhibition of growth at 10 µM (T47D): 52%
- inhibition of growth at 10 µM (NCI-H226): 75%
- inhibition of growth at 10 µM (786-0 [18]): 59%
- inhibition of growth at 10 µM (SF-295): 87%
- inhibition of growth at 10 µM (UACC-62): 30%
- inhibition of growth at 10 µM (MDA-MB-231 [19]): 48%
- inhibition of growth at 10 µM (RPMI-8226): 26%
